Experimental data reported in patent US20090221599A1, “PHTHALAZINONE PYRAZOLE DERIVATIVES, THEIR MANUFACTURE AND USE AS PHARMACEUTICAL AGENTS” (priority 2006, published 2009).

Experiments:
HCT 116 cells = assay: CellTiter-Glo assay in HCT 116 cells; assay type: cell-based; settings: HCT 116 human colon carcinoma cells, 5 days, CellTiter-Glo cell viability
Procedure: The CellTiter-Glo™ Luminescent Cell Viability Assay (Promega) is a homogeneous method of determining the number of viable cells in culture based on quantitation of the ATP present, which signals the presence of metabolically active cells.
HCT 116 cells (human colon carcinoma, ATCC-No. CC1-247) were cultivated in RPMI 1640 medium with GlutaMAX™ I (Invitrogen, Cat-No. 61870-010), 2.5% Fetal Calf Serum (FCS, Sigma Cat-No. F4135 (FBS)); 100 Units/ml penicillin/100 μg/ml streptomycin (=Pen/Strep from Invitrogen Cat. No. 15140). For the assay the cells were seeded in 384 well plates, 1000 cells per well, in the same medium. The next day the test compounds were added in various concentrations ranging from 30 μM to 0.0015 μM (10 concentrations, 1:3 diluted). After 5 days the CellTiter-Glo™ assay was done according to the instructions of the manufacturer (CellTiter-Glo™ Luminescent Cell Viability Assay, from Promega). In brief: the cell-plate was equilibrated to room temperature for approximately 30 minutes and than the CellTiter-Glo™ reagent was added. The contents were carefully mixed for 15 minutes to induce cell lysis. After 45 minutes the luminescent signal was measured in Victor 2, (scanning multiwell spectrophotometer, Wallac).
1st. day: • Medium: RPMI 1640 with GlutaMAX™ I (Invitrogen, Cat-No. 61870), 5% FCS (Sigma Cat.-No. F4135), Pen/Strep (Invitrogen, Cat No. 15140). • HCT116 (ATCC-No. CC1-247): 1000 cells in 60 μl per well of 384 well plate (Greiner 781098, μClear-plate white) • After seeding incubate plates 24 h at 37° C., 5% CO2 2nd. day: Induction (Treatment with compounds, 10 concentrations):
In order to achieve a final concentration of 30 μM as highest concentration 3.5 μl of 10 mM compound stock solution were added directly to 163 μl media. Then step e) of the dilution procedure described below, was followed.
In order to achieve the second highest to the lowest concentrations, a serial dilution with dilution steps of 1:3 was followed according to the procedure (a-d) as described here below: • a) for the second highest concentration add 10 μl of 10 mM stock solution of compound to 20 μl dimethylsulfoxide (DMSO) • b) dilute 8× 1:3 (always 10 μl to 20 μl DMSO) in this DMSO dilution row (results in 9 wells with concentrations from 3333.3 μM to 0.51 μM) • c) dilute each concentration 1:47.6 (3.5 μl compound dilution to 163 μl media) • d) add 10 μl of every concentration to 60 μl media in the cell plate resulting in final concentration of DMSO: 0.3% in every well and resulting in 10 final concentration of compounds ranging from 30 μM to 0.0015 μM. • Each compound is tested in triplicate. • Incubate 120 h (5 days) at 37° C., 5% CO2
• Add 30 μl CellTiter-Glo™ Reagent (prepared from CellTiter-Glo™ Buffer and CellTiter-Glo™ Substrate (lyophilized) purchased from Promega) per well, • shake 15 minutes at room temperature • incubate further 45 minutes at room temperature without shaking
• Victor 2 scanning multiwell spectrophotometer (Wallac), Luminescence mode (0.5 sec/read, 477 nm) • Determine IC50 using a non-linear curve fit (XLfit software (ID Business Solution Ltd., Guilford, Surrey, UK))

mutant Aurora A kinase = target: T1, mutant Aurora A kinase (Homo sapiens, UniProt O14965); assay: IC50 determination for inhibitors of Aurora A (ELISA, GST-Histone H3 substrate); assay type: biochemical; settings: 30 μM ATP, 40 minutes, read-out: IC50 Aurora A kinase inhibition
T1 sequence (O14965 1-403): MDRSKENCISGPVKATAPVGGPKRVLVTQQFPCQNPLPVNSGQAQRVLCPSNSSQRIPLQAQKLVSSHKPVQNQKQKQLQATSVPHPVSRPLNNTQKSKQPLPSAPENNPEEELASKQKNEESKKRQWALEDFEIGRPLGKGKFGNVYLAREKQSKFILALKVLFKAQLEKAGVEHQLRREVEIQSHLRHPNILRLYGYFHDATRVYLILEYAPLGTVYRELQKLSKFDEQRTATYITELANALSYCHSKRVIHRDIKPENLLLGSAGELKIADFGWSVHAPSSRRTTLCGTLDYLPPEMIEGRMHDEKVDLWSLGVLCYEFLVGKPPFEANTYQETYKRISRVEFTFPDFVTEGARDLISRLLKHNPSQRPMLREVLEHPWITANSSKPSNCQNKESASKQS
Procedure: Aurora A is a serine threonine kinase involved in spindle assembly and chromosome segregation.
The assay is a typically ELISA-type assay where substrate (GST-Histone H3) is coupled to the assay-plate and is phosphorylated by the kinase. Phosphorylation is detected by a mouse anti-Phosphopeptid mAb and an HRP-labeled anti-mouse pAb. The assay is validated for IC50-determination.
Kinase activities were measured by Enzyme-Linked Immunosorbent Assay (ELISA): Maxisorp 384-well plates (Nunc) were coated with recombinant fusion protein comprising residues 1-15 of Histone H3 fused to the N-terminus of Glutathione-S-Transferase. Plates were then blocked with a solution of 1 mg/mL I-block (Tropix cat# T2015—highly purified form of casein) in phosphate-buffered saline. Kinase reactions were carried out in the wells of the ELISA plate by combining an appropriate amount of mutant Aurora A kinase with test compound and 30 μM ATP. The reaction buffer was 10× Kinase Buffer (Cell Signaling cat #9802) supplemented with 1 μg/mL I-block. Reactions were stopped after 40 minutes by addition of 25 mM EDTA. After washing, substrate phosphorylation was detected by addition of anti-phospho-Histone H3 (Ser 10) 6G3 mAb (Cell Signaling cat #9706) and sheep anti-mouse pAb-HRP (Amersham cat# NA931V), followed by calorimetric development with TMB (3,3′,5,5′-tetramethylbenzidine from Kirkegaard & Perry Laboratories). After readout of the absorbance, IC50 values were calculated using a non-linear curve fit (XLfit software (ID Business Solution Ltd., Guilford, Surrey, UK)).

Compound `CSCCOc1ccc2c(Nc3cc(C)[nH]n3)nn(C(C)C)c(=O)c2c1` [Example A-1, 2-Isopropyl-4-(5-methyl-1H-pyrazol-3-ylamino)-7-(2-methylsulfanyl-ethoxy)-2H-phthalazin-1-one] has an IC50 (HCT 116 cells; Homo sapiens, HCT-116, 120 h) of 216 nM.
Compound `COCCOc1ccc2c(Nc3cc(C)[nH]n3)nn(C(C)C)c(=O)c2c1` [Example A-2, 2-Isopropyl-7-(2-methoxy-ethoxy)-4-(5-methyl-1H-pyrazol-3-ylamino)-2H-phthalazin-1-one] has an IC50 (HCT 116 cells; Homo sapiens, HCT-116, 120 h) of 50 to 500 nM.
Compound `Cc1cc(Nc2nn(C(C)C)c(=O)c3cc(OCCCS(=O)(=O)N(C)C)ccc23)n[nH]1` [Example A-3, 3-[3-Isopropyl-1-(5-methyl-1H-pyrazol-3-ylamino)-4-oxo-3,4-dihydro-phthalazin-6-yloxy]-propane-1-sulfonic acid dimethylamide] has an IC50 (HCT 116 cells; Homo sapiens, HCT-116, 120 h) of 50 to 500 nM.
`Cc1cc(Nc2nn(C(C)C)c(=O)c3cc(OCCCS(=O)(=O)N4CCOCC4)ccc23)n[nH]1` [Example A-4, 2-Isopropyl-4-(5-methyl-1H-pyrazol-3-ylamino)-7-[3-(morpholine-4-sulfonyl)-propoxy]-2H-phthalazin-1-one] was tested, and the IC50 (mutant Aurora A kinase) was 10 nM and the IC50 (HCT 116 cells; Homo sapiens, HCT-116, 120 h) was 791 nM.
In the case of `Cc1cc(Nc2nn(C(C)C)c(=O)c3cc(OCCN(C)C)ccc23)n[nH]1` [Example A-5, 7-(2-Dimethylamino-ethoxy)-2-isopropyl-4-(5-methyl-1H-pyrazol-3-ylamino)-2H-phthalazin-1-one], the IC50 (mutant Aurora A kinase) is reported as 22 nM.
For `Cc1cc(Nc2nn(C(C)C)c(=O)c3cc(OCCS(C)(=O)=O)ccc23)n[nH]1` [Example A-7, 2-Isopropyl-7-(2-methanesulfonyl-ethoxy)-4-(5-methyl-1H-pyrazol-3-ylamino)-2H-phthalazin-1-one], the IC50 (HCT 116 cells; Homo sapiens, HCT-116, 120 h) was 50 to 500 nM.
For `CSCCN(C)c1ccc2c(Nc3cc(C)[nH]n3)nn(C(C)C)c(=O)c2c1` [Example B-1, 2-Isopropyl-7-[methyl-(2-methylsulfanyl-ethyl)-amino]-4-(5-methyl-1H-pyrazol-3-ylamino)-2H-phtalazin-1-one], the IC50 (HCT 116 cells) was 92 nM.
Compound `COCCN(C)c1ccc2c(Nc3cc(C)[nH]n3)nn(C(C)C)c(=O)c2c1` [Example B-2, 2-Isopropyl-7-[(2-methoxy-ethyl)-methyl-amino]-4-(5-methyl-1H-pyrazol-3-ylamino)-2H-phthalazin-1-one] has an IC50 (HCT 116 cells; Homo sapiens, HCT-116, 120 h) of 50 to 500 nM.
`Cc1cc(Nc2nn(C(C)C)c(=O)c3cc(N(C)CCN(C)C)ccc23)n[nH]1` [Example B-3, 7-[(2-Dimethylamino-ethyl)-methyl-amino]-2-isopropyl-4-(5-methyl-1H-pyrazol-3-ylamino)-2H-phthalazin-1-one] gave an IC50 (HCT 116 cells; Homo sapiens, HCT-116, 120 h) of 50 to 500 nM.
`CSCCSc1ccc2c(Nc3cc(C)[nH]n3)nn(C(C)C)c(=O)c2c1` [Example C-1, 2-Isopropyl-4-(5-methyl-1H-pyrazol-3-ylamino)-7-(2-methylsulfanyl-ethylsulfanyl)-2H-phthalazin-1-one] was tested, and the IC50 (HCT 116 cells; Homo sapiens, HCT-116, 120 h) was 296 nM.
For `Cc1cc(Nc2nn(C(C)C)c(=O)c3cc(S(=O)(=O)CCS(C)(=O)=O)ccc23)n[nH]1` [Example C-2, 2-Isopropyl-7-(2-methanesulfonyl-ethanesulfonyl)-4-(5-methyl-1H-pyrazol-3-ylamino)-2H-phthalazin-1-one], the IC50 (mutant Aurora A kinase) was 10 nM and the IC50 (HCT 116 cells; Homo sapiens, HCT-116, 120 h) was 500 to 2500 nM.
Work on `Cc1cc(Nc2nn(C(C)C)c(=O)c3cc(COCC4CC4)ccc23)n[nH]1` [Example E-1, 7-Cyclopropylmethoxymethyl-2-isopropyl-4-(5-methyl-1H-pyrazol-3-ylamino)-2H-phthalazin-1-one] yielded an IC50 (HCT 116 cells; Homo sapiens, HCT-116, 120 h) of 50 to 500 nM.
In the case of `Cc1cc(Nc2nn(C(C)C)c(=O)c3cc(COCc4cccnc4)ccc23)n[nH]1` [Example E-2, 2-Isopropyl-4-(5-methyl-1H-pyrazol-3-ylamino)-7-(pyridin-3-ylmethoxymethyl)-2H-phthalazin-1-one], the IC50 (HCT 116 cells; Homo sapiens, HCT-116, 120 h) is reported as 50 to 500 nM.
For `Cc1cc(Nc2nn(C(C)C)c(=O)c3cc(COCCN4CCOCC4)ccc23)[nH]n1` [Example E-3, 2-Isopropyl-4-(5-methyl-2H-pyrazol-3-ylamino)-7-(2-morpholin-4-yl-ethoxymethyl)-2H-phthalazin-1-one], the IC50 (mutant Aurora A kinase) was 16 nM and the IC50 (HCT 116 cells; Homo sapiens, HCT-116, 120 h) was 500 to 2500 nM.
`CSCc1ccc2c(Nc3cc(C)[nH]n3)nn(C(C)C)c(=O)c2c1` [Example F-1, 2-Isopropyl-4-(5-methyl-1H-pyrazol-3-ylamino)-7-methylsulfanylmethyl-2H-phthalazin-1-one] showed an IC50 (HCT 116 cells; Homo sapiens, HCT-116, 120 h) of 50 to 500 nM.
`Cc1cc(Nc2nn(C(C)C)c(=O)c3cc(CS(C)(=O)=O)ccc23)n[nH]1` [Example F-2, 2-Isopropyl-7-methanesulfonylmethyl-4-(5-methyl-1H-pyrazol-3-ylamino)-2H-phthalazin-1-one] showed an IC50 (HCT 116 cells; Homo sapiens, HCT-116, 120 h) of 500 to 2500 nM.
Work on `COCC(=O)N(C)c1ccc2c(Nc3cc(C)[nH]n3)nn(C(C)C)c(=O)c2c1` [Example G-1, N-[3-Isopropyl-1-(5-methyl-1H-pyrazol-3-ylamino)-4-oxo-3,4-dihydro-phthalazin-6-yl]-2-methoxy-N-methyl-acetamide] yielded an IC50 (HCT 116 cells; Homo sapiens, HCT-116, 120 h) of 50 to 500 nM.
For `COCC(=O)N(C)c1ccc2c(Nc3cc(C)[nH]n3)nn(Cc3cc(F)cc(F)c3)c(=O)c2c1` [Example G-2, N-[3-(3,5-Difluoro-benzyl)-1-(5-methyl-1H-pyrazol-3-ylamino)-4-oxo-3,4-dihydro-phthalazin-6-yl]-2-methoxy-N-methyl-acetamide], the IC50 (HCT 116 cells; Homo sapiens, HCT-116, 120 h) was 500 to 2500 nM.
